Data on 27 molecules can be found in US20230102554A1 (GB002, INC., priority 2019, published 2023).

Assay [1] has as its target T1, Human PDGFRβ, cytoplasmic domain (GST-PDGFRβ) (Homo sapiens, UniProt P09619).
T1 construct: made in house
The assay can be described thus: Human PDGFRβ biochemical inhibition assay (off-chip Mobility Shift Assay). The essentials: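 GST-tagged cytoplasmic domain (aa 557-1106) from baculovirus was incubated 1 h at room temperature with compound, CSKtide, ATP at Km and Mg²⁺ in HEPES buffer, pH 7.5. Phosphorylated and unphosphorylated peptide were separated by off-chip mobility shift, and the product ratio P/(P+S) gave percent inhibition.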

Assay [2] concerns the target T2, Human PDGFRα, cytoplasmic domain (GST-PDGFRα) (Homo sapiens, UniProt P16234).
T2 construct: made in house
The assay can be described thus: Human PDGFRα biochemical inhibition assay (off-chip Mobility Shift Assay).

Where only a bound is given, the exact number is not on record here.

T2 sequence (P16234 550-1089 T674I): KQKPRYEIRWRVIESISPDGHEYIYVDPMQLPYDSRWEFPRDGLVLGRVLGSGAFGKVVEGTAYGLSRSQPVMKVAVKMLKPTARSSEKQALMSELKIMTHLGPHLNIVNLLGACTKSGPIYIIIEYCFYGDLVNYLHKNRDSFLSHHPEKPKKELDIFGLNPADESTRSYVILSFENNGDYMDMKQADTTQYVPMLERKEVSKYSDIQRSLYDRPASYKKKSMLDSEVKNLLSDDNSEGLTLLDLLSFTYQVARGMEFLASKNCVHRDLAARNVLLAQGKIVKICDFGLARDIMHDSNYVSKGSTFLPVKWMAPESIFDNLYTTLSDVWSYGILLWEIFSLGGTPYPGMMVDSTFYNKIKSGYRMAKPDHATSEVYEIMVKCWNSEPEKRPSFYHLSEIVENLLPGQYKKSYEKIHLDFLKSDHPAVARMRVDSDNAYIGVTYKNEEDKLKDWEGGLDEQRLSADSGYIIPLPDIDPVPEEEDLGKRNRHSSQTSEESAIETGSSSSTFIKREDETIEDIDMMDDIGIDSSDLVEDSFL
T1 sequence (P09619 with tags, fused parts or gaps): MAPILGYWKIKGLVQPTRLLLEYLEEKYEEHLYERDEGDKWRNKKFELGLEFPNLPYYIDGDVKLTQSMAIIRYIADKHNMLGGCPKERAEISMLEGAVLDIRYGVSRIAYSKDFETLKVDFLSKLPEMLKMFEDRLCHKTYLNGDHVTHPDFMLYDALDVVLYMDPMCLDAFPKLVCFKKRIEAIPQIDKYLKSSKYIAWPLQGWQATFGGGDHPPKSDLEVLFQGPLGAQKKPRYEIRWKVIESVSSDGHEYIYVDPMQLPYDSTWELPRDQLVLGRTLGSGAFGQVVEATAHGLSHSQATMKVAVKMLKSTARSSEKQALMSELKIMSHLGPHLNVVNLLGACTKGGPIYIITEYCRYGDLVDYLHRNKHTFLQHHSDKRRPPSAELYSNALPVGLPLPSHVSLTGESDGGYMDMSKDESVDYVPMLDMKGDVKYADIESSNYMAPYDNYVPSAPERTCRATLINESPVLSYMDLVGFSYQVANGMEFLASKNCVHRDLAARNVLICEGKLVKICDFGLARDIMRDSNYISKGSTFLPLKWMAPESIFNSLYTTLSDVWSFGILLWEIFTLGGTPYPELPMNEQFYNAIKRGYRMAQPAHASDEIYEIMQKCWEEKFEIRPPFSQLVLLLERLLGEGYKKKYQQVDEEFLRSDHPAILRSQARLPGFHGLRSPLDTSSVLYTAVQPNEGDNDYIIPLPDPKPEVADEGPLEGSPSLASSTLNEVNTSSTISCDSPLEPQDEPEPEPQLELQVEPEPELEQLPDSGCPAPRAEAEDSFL

For the molecule `C[C@H](Nc1cnc2cnn(C)c2n1)c1cccc(NC(=O)c2cnc(C(F)F)s2)c1` [Compound 141, (S)-2-(difluoromethyl)-N-(3-(1-((1-methyl-1H-pyrazolo[3,4-b]pyrazin-6-yl)amino)ethyl)phenyl)thiazole-5-carboxamide], the 50% inhibitory concentration (IC50) in assay [1] and in assay [2] was less than 300 nM each time.
Take `CC(C)c1cc(C(=O)Nc2cccc([C@H](C)Nc3cnc4cnn(C)c4n3)c2)no1` [Compound 142, (S)-5-isopropyl-N-(3-(1-((1-methyl-1H-pyrazolo[3,4-b]pyrazin-6-yl)amino)ethyl)phenyl)isoxazole-3-carboxamide]: the IC50 in assay [1] and in assay [2] was less than 300 nM throughout.
With `C[C@H](Nc1cnc2cnn(C)c2n1)c1cccc(NC(=O)c2cc(C(C)(C)C)on2)c1` [Compound 143, (S)-5-(tert-butyl)-N-(3-(1-((1-methyl-1H-pyrazolo[3,4-b]pyrazin-6-yl)amino)ethyl)phenyl)isoxazole-3-carboxamide], the IC50 in assay [1] and in assay [2] was less than 300 nM each time.
With `C[C@H](Nc1cnc2cnn(C)c2n1)c1cccc(NC(=O)c2cc(C3CC3)on2)c1` [Compound 144, (S)-5-cyclopropyl-N-(3-(1-((1-methyl-1H-pyrazolo[3,4-b]pyrazin-6-yl)amino)ethyl)phenyl)isoxazole-3-carboxamide], the IC50 in assay [1] and in assay [2] was less than 300 nM in each case.
As to `CC(C)c1cc(C(=O)Nc2cccc([C@H](C)Nc3cnc4cnn(C)c4n3)c2)on1` [Compound 145, (S)-3-isopropyl-N-(3-(1-((1-methyl-1H-pyrazolo[3,4-b]pyrazin-6-yl)amino)ethyl)phenyl)isoxazole-5-carboxamide], the IC50 in assay [1] and in assay [2] was less than 300 nM in each case.
For `C[C@H](Nc1cnc2cnn(C)c2n1)c1cccc(NC(=O)c2cnn(C)c2)c1` [Compound 146, (S)-1-methyl-N-(3-(1-((1-methyl-1H-pyrazolo[3,4-b]pyrazin-6-yl)amino)ethyl)phenyl)-1H-pyrazole-4-carboxamide], the half-maximal inhibitory concentration (IC50) in assay [1] was not below 1000 nM; in assay [2], 300 to 1000 nM.
Consider `CC(C)n1cc(C(=O)Nc2cccc([C@H](C)Nc3cnc4cnn(C)c4n3)c2)cn1` [Compound 147, (S)-1-isopropyl-N-(3-(1-((1-methyl-1H-pyrazolo[3,4-b]pyrazin-6-yl)amino)ethyl)phenyl)-1H-pyrazole-4-carboxamide], for which the half-inhibitory concentration (IC50) in assay [1] and in assay [2] was less than 300 nM in each case.
`C[C@H](Nc1cnc2cnn(C)c2n1)c1cccc(NC(=O)c2cnn(C(C)(C)C)c2)c1` [Compound 148, (S)-1-(tert-butyl)-N-(3-(1-((1-methyl-1H-pyrazolo[3,4-b]pyrazin-6-yl)amino)ethyl)phenyl)-1H-pyrazole-4-carboxamide]: the IC50 in assay [1] and in assay [2] was less than 300 nM in each case.
In the case of `C[C@H](Nc1cnc2cnn(C)c2n1)c1cccc(NC(=O)c2cnn(C(F)F)c2)c1` [Compound 149, (S)-1-(difluoromethyl)-N-(3-(1-((1-methyl-1H-pyrazolo[3,4-b]pyrazin-6-yl)amino)ethyl)phenyl)-1H-pyrazole-4-carboxamide], the IC50 in assay [1] and in assay [2] was less than 300 nM each time.
For `C[C@H](Nc1cnc2cnn(C)c2n1)c1cccc(NC(=O)c2cnn(C3CC3)c2)c1` [Compound 150, (S)-1-cyclopropyl-N-(3-(1-((1-methyl-1H-pyrazolo[3,4-b]pyrazin-6-yl)amino)ethyl)phenyl)-1H-pyrazole-4-carboxamide], the concentration for half-maximal inhibition (IC50) in assay [1] and in assay [2] was less than 300 nM throughout.
Regarding `C[C@H](Nc1cnc2cnn(C)c2n1)c1cccc(NC(=O)c2cnn(C3CCC3)c2)c1` [Compound 151, (S)-1-cyclobutyl-N-(3-(1-((1-methyl-1H-pyrazolo[3,4-b]pyrazin-6-yl)amino)ethyl)phenyl)-1H-pyrazole-4-carboxamide], the IC50 in assay [1] and in assay [2] was less than 300 nM in each case.
Turning to `C[C@H](Nc1cnc2cnn(C)c2n1)c1cccc(NC(=O)c2cnn(CC3CC3)c2)c1` [Compound 152, (S)-1-(cyclopropylmethyl)-N-(3-(1-((1-methyl-1H-pyrazolo[3,4-b]pyrazin-6-yl)amino)ethyl)phenyl)-1H-pyrazole-4-carboxamide], the IC50 in assay [1] and in assay [2] was less than 300 nM in each case.
For `CCn1cc(C(=O)Nc2cccc([C@H](C)Nc3cnc4cnn(C)c4n3)c2)cn1` [Compound 153, (S)-1-ethyl-N-(3-(1-((1-methyl-1H-pyrazolo[3,4-b]pyrazin-6-yl)amino)ethyl)phenyl)-1H-pyrazole-4-carboxamide], the 50% inhibitory concentration (IC50) in assay [1] and in assay [2] was less than 300 nM throughout.
`C[C@H](Nc1cnc2cnn(C)c2n1)c1cccc(NC(=O)c2cnn(CCF)c2)c1` [Compound 154, (S)-1-(2-fluoroethyl)-N-(3-(1-((1-methyl-1H-pyrazolo[3,4-b]pyrazin-6-yl)amino)ethyl)phenyl)-1H-pyrazole-4-carboxamide]: the IC50 in assay [1] and in assay [2] was less than 300 nM throughout.
Regarding `C[C@H](Nc1cnc2cnn(C)c2n1)c1cccc(NC(=O)c2ccn(C(F)F)n2)c1` [Compound 155, (S)-1-(difluoromethyl)-N-(3-(1-((1-methyl-1H-pyrazolo[3,4-b]pyrazin-6-yl)amino)ethyl)phenyl)-1H-pyrazole-3-carboxamide], the figures for the half-maximal inhibitory concentration (IC50) in assay [1] and in assay [2] were not below 1000 nM and less than 300 nM, respectively.
On to `CC(C)n1ccc(C(=O)Nc2cccc([C@H](C)Nc3cnc4cnn(C)c4n3)c2)n1` [Compound 156, (S)-1-isopropyl-N-(3-(1-((1-methyl-1H-pyrazolo[3,4-b]pyrazin-6-yl)amino)ethyl)phenyl)-1H-pyrazole-3-carboxamide], for which the IC50 in assay [1] and in assay [2] was less than 300 nM each time.
With `CC(C)Cn1ccc(C(=O)Nc2cccc([C@H](C)Nc3cnc4cnn(C)c4n3)c2)n1` [Compound 157, (S)-1-isobutyl-N-(3-(1-((1-methyl-1H-pyrazolo[3,4-b]pyrazin-6-yl)amino)ethyl)phenyl)-1H-pyrazole-3-carboxamide], the half-inhibitory concentration (IC50) in assay [1] and in assay [2] was less than 300 nM throughout.
With `C[C@H](Nc1cnc2cnn(C)c2n1)c1cccc(NC(=O)c2ccn(CC(F)F)n2)c1` [Compound 158, (S)-1-(2,2-difluoroethyl)-N-(3-(1-((1-methyl-1H-pyrazolo[3,4-b]pyrazin-6-yl)amino)ethyl)phenyl)-1H-pyrazole-3-carboxamide], the 50% inhibitory concentration (IC50) is 300 to 1000 nM in assay [1] and less than 300 nM in assay [2].
In the case of `C[C@H](Nc1cnc2cnn(C)c2n1)c1cccc(NC(=O)c2cc(C(C)(C)C)nn2C)c1` [Compound 159, (S)-3-(tert-butyl)-1-methyl-N-(3-(1-((1-methyl-1H-pyrazolo[3,4-b]pyrazin-6-yl)amino)ethyl)phenyl)-1H-pyrazole-5-carboxamide], the IC50 in assay [1] and in assay [2] was less than 300 nM each time.
`C[C@H](Nc1cnc2cnn(C)c2n1)c1cccc(NC(=O)c2cc(C(F)(F)F)nn2C)c1` [Compound 160, (S)-1-methyl-N-(3-(1-((1-methyl-1H-pyrazolo[3,4-b]pyrazin-6-yl)amino)ethyl)phenyl)-3-(trifluoromethyl)-1H-pyrazole-5-carboxamide]: the IC50 in assay [1] and in assay [2] was less than 300 nM throughout.
On to `CC(C)c1cc(C(=O)Nc2cccc([C@H](C)Nc3cnc4cnn(C)c4n3)c2)n[nH]1` [Compound 161, (S)-5-isopropyl-N-(3-(1-((1-methyl-1H-pyrazolo[3,4-b]pyrazin-6-yl)amino)ethyl)phenyl)-1H-pyrazole-3-carboxamide], for which the IC50 in assay [1] and in assay [2] was less than 300 nM throughout.
`CC(C)c1cc(C(=O)Nc2cccc([C@H](C)Nc3cnc4cnn(C)c4n3)c2)nn1C` [Compound 162, (S)-5-isopropyl-1-methyl-N-(3-(1-((1-methyl-1H-pyrazolo[3,4-b]pyrazin-6-yl)amino)ethyl)phenyl)-1H-pyrazole-3-carboxamide]: the IC50 in assay [1] and in assay [2] was less than 300 nM each time.
Take `CCn1nc(C(=O)Nc2cccc([C@H](C)Nc3cnc4cnn(C)c4n3)c2)cc1C(C)C` [Compound 163, (S)-1-ethyl-5-isopropyl-N-(3-(1-((1-methyl-1H-pyrazolo[3,4-b]pyrazin-6-yl)amino)ethyl)phenyl)-1H-pyrazole-3-carboxamide]: the IC50 in assay [1] and in assay [2] was less than 300 nM in each case.
For the molecule `C[C@H](Nc1cnc2cnn(C)c2n1)c1cccc(NC(=O)c2cc(C(F)(F)F)n(C)n2)c1` [Compound 164, (S)-1-methyl-N-(3-(1-((1-methyl-1H-pyrazolo[3,4-b]pyrazin-6-yl)amino)ethyl)phenyl)-5-(trifluoromethyl)-1H-pyrazole-3-carboxamide], the IC50 in assay [1] and in assay [2] was less than 300 nM in each case.
With `CC(C)c1cc(C(=O)Nc2cccc([C@H](C)Nc3cnc4cnn(C)c4n3)c2)n(C)n1` [Compound 165, (S)-3-isopropyl-1-methyl-N-(3-(1-((1-methyl-1H-pyrazolo[3,4-6]pyrazin-6-yl)amino)ethyl)phenyl)-1H-pyrazole-5-carboxamide], the IC50 in assay [1] and in assay [2] was less than 300 nM each time.
For the molecule `C[C@H](Nc1cnc2cnn(C)c2n1)c1cccc(NC(=O)c2cc(C(C)(C)C)n(C)n2)c1` [Compound 166, (S)-5-(tert-butyl)-1-methyl-N-(3-(1-((1-methyl-1H-pyrazolo[3,4-b]pyrazin-6-yl)amino)ethyl)phenyl)-1H-pyrazole-3-carboxamide], the IC50 in assay [1] and in assay [2] was less than 300 nM throughout.
For the molecule `CCn1nc(C(C)C)cc1C(=O)Nc1cccc([C@H](C)Nc2cnc3cnn(C)c3n2)c1` [Compound 167, (S)-1-ethyl-3-isopropyl-N-(3-(1-((1-methyl-1H-pyrazolo[3,4-b]pyrazin-6-yl)amino)ethyl)phenyl)-1H-pyrazole-5-carboxamide], the IC50 in assay [1] and in assay [2] was less than 300 nM throughout.

What is called IC50 is the midpoint of a concentration-inhibition curve.
